A melting point compilation (Tetko et al.; mined from patent text by program, amines drawn as free bases though some values may be those of a salt)

Row | SMILES | melting point
1 | CCNc1nc(Cl)cc(NC2CC2)n1 | 86 to 88 °C
2 | CC(C)(O)Cn1cnc2c(Cl)nc3ccccc3c21 | 196 to 199 °C
3 | Cc1ccc2c(c1)OC1(O)c3ccccc3C(=O)C21O (stereo not given) | 145 to 147 °C
4 | CC(Oc1ccc(Oc2ccc(C(F)(F)F)cn2)cc1)C(=O)N1CCCO1 (stereo not given) | 83 to 85 °C
5 | CCCCC(=O)OC1C(O)C(CO)OC1n1cnc2c(OC)nc(N)nc21 (stereo not given) | 83 to 86 °C
6 | O=C(O)C(O)=CC(=O)c1cn(Cc2ccc(C(F)(F)F)cc2)c(=O)n(Cc2ccc(C(F)(F)F)cc2)c1=O | 176 to 178 °C
7 | Cc1ccc2nc(-c3ccc(N)c(I)c3)sc2c1 | 176 to 178 °C
8 | COC(=O)c1[nH]c2c(C)ccc(C)c2c1-c1nc2ccccc2s1 | 193 to 194 °C
9 | Cc1ccc2c(c1)C(C=O)c1ccccc1C2C=O (stereo not given) | 125 to 126 °C
10 | CC(O)c1cc(N)ccc1N (stereo not given) | 124 °C
11 | Clc1cc2c(cc1Cl)Nc1ccccc1C(NCc1cccnc1)=N2 | 209 to 210 °C
12 | O=C1CCC(C(=O)O)C(=O)N1 (stereo not given) | 116 to 118 °C
13 | CON(C)Cc1nc2c(N)nc(C)c(C)c2n1CC(C)C | 132 to 134 °C
14 | COc1ccc(N2CCN(c3ccc(OC)nc3-c3ccc(OCC(F)(F)F)cc3)CC2)cc1 | 104 to 107 °C
15 | CC12CC(=O)C3C(CCC4CC(=O)CCC43C)C1CCC2C(=O)CCl (stereo not given) | 168 to 172 °C
16 | CC(C)(C)OC(=O)Nc1ccc(-c2ccc(S(=O)(=O)n3ccc(/C=C/C(=O)NOC4CCCCO4)c3)cc2)cn1 (stereo not given) | 140 to 146 °C
17 | CCn1cc2c(n1)c(=O)[nH]c1cc(OCc3ccccc3)ccc12 | 240 to 241 °C
18 | O=C(O)C(=O)Nc1ccc2c(=O)n3c(nc2c1)C(=Cc1ccccc1)CC3 | 198 to 200 °C
19 | CCCCC(OC(=O)c1ccccc1)P(=O)(O)OC(CCCCN)C(=O)N1CCCC1C(=O)O (stereo not given) | 158 to 170 °C
20 | COC(=O)Cc1ccccc1CSc1nc2cc(C(F)(F)F)ccc2s1 | 97 to 99 °C
21 | CSc1ncncc1C1c2cc(NS(=O)(=O)c3ccccc3)ccc2CC1(C)C (stereo not given) | 174 to 176 °C
22 | Cn1nc(N)nc1NCCCOc1cccc(CNC2CCCCC2)c1 | 102 to 103 °C
23 | NS(=O)(=O)c1ccc(-c2c(-c3cccc(F)c3)noc2CC(=O)O)cc1 | 242 to 250 °C
24 | Clc1cc(Br)c2c(c1)COCO2 | 108 to 110 °C
25 | O=C(C=Cc1ccccc1)Nc1ccc(S(=O)(=O)O)cc1 | 235 to 237 °C

Row | SMILES | melting point
26 | CC(C)NCC(O)Cc1ccc([N+](=O)[O-])c(C2OCCO2)c1 (stereo not given) | 97 to 99 °C
27 | CC(C)(C)CNc1nc(Cl)ncc1CN=[N+]=[N-] | 133 to 136 °C
28 | OCc1cccc(-c2ccc3nc(-c4ccc(Cl)cc4)cn3c2)c1 | 181 to 182 °C
29 | CC(C)(C)C1=NN(c2ccc(C(=O)O)cc2)C(c2ccc(Br)cc2)C1 (stereo not given) | 222 °C
30 | O=C(Nc1ccccc1NS(=O)(=O)c1ccc(Cl)cc1)c1ccccc1 | 191 to 192 °C
31 | Cc1cc(NC(=O)CC#N)nc(C)n1 | 178 °C
32 | CCOC(=O)C(=O)Nc1cc(C#N)cc([N+](=O)[O-])c1 | 114 to 116 °C
33 | Nc1c(Cl)cc(C(O)CNCCCCCCSCCc2ccccn2)cc1Cl (stereo not given) | 83 to 84 °C
34 | CCCOC(=O)c1ccc(OC(=O)CCCC(=O)Oc2ccc(C(=O)OCCC)cc2)cc1 | 74 to 75 °C
35 | CC#CCOc1cc(Oc2ccc(Cl)cc2F)ncn1 | 118 °C
36 | CC(C)(C)[Si](C)(C)OCC1(CO[Si](C)(C)C(C)(C)C)c2ccccc2-c2ccccc21 | 84 °C
37 | Clc1cccc(Oc2ncccc2C2=NC(c3ccccc3)CO2)c1 (stereo not given) | 78 to 80 °C
38 | COc1ccnc(CCc2nc3cc(-c4ccc(S(=O)(=O)Nc5ccc(C)cc5)cc4)cnc3[nH]2)c1 | 219 to 220 °C
39 | Clc1c(CN[C@H]2CC[C@@H](c3ccccc3)CC2)ccn2c(CC3CC3)nnc12 | 171 °C
40 | CC(C)Cc1nn(C)c(=O)c2cn(Cc3cccc4ccccc34)nc12 | 166 to 167 °C
41 | Cc1cccc(O)c1S(N)(=O)=O | 126 °C
42 | CC(C)(OCc1nn(Cc2ccccc2)c2ccccc12)C(=O)Nc1ccccn1 | 121 to 122 °C
43 | CC(C)(C)c1ccc(S(=O)(=O)n2c(CCCC(=O)O)cc3nc(Cl)ccc32)cc1 | 168 °C
44 | O=C(O)CC1(c2ccc(Cl)cc2Cl)CNC(=O)C1 (stereo not given) | 188 to 192 °C
45 | CCC(CC)c1ccc(Cl)c2nc3n(c12)CCCCN3c1ncc(C(F)(F)F)cc1Cl | 108 to 110 °C
46 | CCOC(=O)C(Cc1c[nH]c2c(F)cccc12)(NC=O)C(=O)OCC | 164 to 166 °C
47 | COC(=O)C1=C(CBr)Nc2ncnn2C1c1cccs1 (stereo not given) | 155 °C
48 | O=c1[nH]c2ccccc2n1Cc1cccnc1 | 160 °C
49 | CCOC(=O)C(=CNNc1c(Cl)cc(C(F)(F)F)cc1Cl)C(C)=O | 75 to 76 °C
50 | CCCCCC(O)CNC (stereo not given) | 40 to 43 °C

Row | SMILES | melting point
51 | CN(c1cccc(C(F)(F)F)c1)c1nc2c(-c3cccc(C(=O)NCCO)c3)cccc2n1C | 156 to 158 °C
52 | COc1ccc(CN(C)CCc2ccc(NC(=O)c3cccc4c(=O)c5cccc(OC)c5sc34)cc2)cc1OC | 151 °C
53 | CC(C)NCC(O)COc1ccccc1-n1cccc1 (stereo not given) | 80 to 81 °C
54 | CCC(CC)n1nnc2c(Nc3ccc(C(C)C)cc3Br)nc(C)cc21 | 144 to 145 °C
55 | COc1ccc(C(C)C)cc1-c1cc(-c2nnnn2C2CCN(C(=O)OC(C)(C)C)C2)c(O)cc1O (stereo not given) | 100 to 104 °C
56 | CCc1oc2ccccc2c1C(=O)N(Cc1ccccc1)Cc1ccc2c(Br)c(O)ccc2c1 | 125 to 130 °C
57 | Nc1ccccc1C(=O)NC1CCCCC1 | 152 to 154 °C
58 | Oc1ccc2c(c1)COc1c-2cc2ccc(O)cc2c1-c1ccccc1Cl | 220 to 222 °C
59 | CC(C)=C1CCC2(C1)C(=O)C=C(OC(C)C)CC2C (stereo not given) | 77 to 77.5 °C
60 | COc1ccccc1N1CCN(CCn2c(=O)[nH]c3sc(C)c(C)c3c2=O)CC1 | 196 to 197 °C
61 | Cc1nc2c(N)nc(-c3ccncc3)nc2[nH]1 | > 310 °C
62 | Clc1cc2c(nn1)-c1ccccc1OC2 | 208 °C
63 | CCOC(=O)C(C)(C)Oc1ccc(CCNC(=O)C=Cc2ccccc2Cl)cc1 | 76 °C
64 | CC(=O)Nc1ccc(P(=O)(O)O)cc1 | 228 °C
65 | COC(=O)c1ccc2cc(-c3ccccc3)[nH]c2c1 | 208 to 210 °C
66 | CCCn1nc(C(=O)O)cc1CC(C)(C)NC(=O)OC(C)(C)C | 151 to 152 °C
67 | CN(C)C(=Nc1ccccc1N1CCOCC1)N1CCCCC1 | 88 to 90 °C
68 | CCOC(=O)N1CCC(=C2c3ccccc3CCn3c(CO)cnc32)CC1 | 192 °C
69 | CCCC[C@H](NC(=O)[C@H](CC(C)C)NC(=O)c1coc2ccccc12)C(=O)CSCc1ccco1 | 113 to 116 °C
70 | CCCCC/C(=C\c1ccccc1)CNc1cccc(-c2ccnc3c(C(=O)c4cccs4)cnn23)c1 | 110 to 112 °C
71 | C=C1C[C@@H]2[C@H](CC[C@]3(C)C(=O)CC[C@@H]23)[C@@]2(C)CCC(=O)C(S)=C12 | 195 to 197 °C
72 | CC(=O)N1CCC(C(=O)OC2c3ccccc3C(=O)N2c2ccc3ccc(Cl)nc3n2)CC1 (stereo not given) | 101 °C
73 | Nc1c([N+](=O)[O-])sc2c(F)cccc12 | 238 to 240 °C
74 | O=C(c1ccc(C(F)(F)F)cc1)c1cc(O)c(O)c([N+](=O)[O-])c1 | 116 to 118 °C
75 | CC(CCCCCC(C)NC(=O)c1ccc(OC(F)(F)F)cc1)NC(=O)c1ccc(OC(F)(F)F)cc1 (stereo not given) | 156 to 160 °C

Row | SMILES | melting point
76 | O=C(OCc1ccc(Cl)cc1)c1ncccc1OCc1ccc(Cl)cc1 | 92 to 94 °C
77 | COc1ccc2c(c1)c(C#N)cn2C | 100 to 104 °C
78 | COc1cccc(/C(=C/C=C/C(=O)O)c2cccc(F)c2)c1 | 151 to 153 °C
79 | CN(C)CCNc1c(-c2ccccc2)c(=O)[nH]c2cc(Cl)ccc12 | 230 °C
80 | O=C(O)CC(CC(=O)Nc1cc(O)c(Cl)cc1F)C(F)(F)F (stereo not given) | 171 to 174 °C
81 | O=C(CCl)NNC1=Nc2ccc(Cl)cc2N(c2ccccc2)C(=O)C1 | 210 to 215 °C
82 | CC(C)(C)OC(=O)N1CCOc2ccccc21 | 78 to 79 °C
83 | S=c1[nH]c2c(n1-c1ccccn1)CCCC2 | 203 to 204 °C
84 | COCCc1nc2c(N)nc3ccccc3c2n1CC(C)(C)CNC(=O)Nc1ccccc1 | 125 to 130 °C
85 | COc1nc(C)nc(NC(=O)NS(=O)(=O)c2cc(Br)cc3c2OS(=O)(=O)C(C)=C3)n1 | 196 to 198 °C
86 | COc1c(Cl)cc(NC(=O)OCCCl)c(OC)c1[N+](=O)[O-] | 93 °C
87 | BrCc1ccc(-c2nnn(C(c3ccccc3)(c3ccccc3)c3ccccc3)n2)cc1 | 165 to 172 °C
88 | CCCOc1cc(CCCOc2nn(Cc3ccccc3)cc2CC(=O)O)n(Cc2ccc(Cl)cc2Cl)n1 | 132 to 134 °C
89 | COc1cc(O)c(CN2CCc3cc(O)ccc3C2)c(OC)c1 | 109 to 112 °C
90 | COc1ccccc1N1CCN(Cc2cnc(N)nc2N)CC1 | 195 to 196 °C
91 | CN1CN(C)C(=O)N(C)C1=O | 88 to 90 °C
92 | Cc1c(NN)nc(N)nc1-c1ccco1 | 155 to 160 °C
93 | Cc1ccc([N+](=O)[O-])cc1Nc1nccc(-c2ccc(Cl)nc2)n1 | 210 to 212 °C
94 | O=C(Nc1ccccc1[N+](=O)[O-])c1ccc(-n2nc(C(F)(F)F)cc2C(F)(F)F)cc1 | 173 to 175 °C
95 | COC(=O)C(C)=C(C)C(=O)N(C(=O)c1ccccc1)c1cc(OC)c(Cl)cc1F | 142 to 145 °C
96 | CC1=C(c2ccc(C(=O)N3Cc4cccn4Cc4ccccc43)cc2C)C(C)CCC1 (stereo not given) | 133 to 135 °C
97 | COc1ccc(C2=CCC(N3CCN(Cc4ccccc4)CC3)CC2)cc1 (stereo not given) | 126 to 128 °C
98 | CCCCOC(=O)C(C#N)=C1Nc2ccccc2O1 | 116 to 119 °C
99 | Cc1c(NC(=O)c2ccc(-c3ccc(F)cc3)cc2F)ccc2cc(CN3CCCCCC3)cnc12 | 159 to 160 °C
100 | CNC(=O)c1cc(N[C@@H]2c3ccccc3C[C@H]2O)c2nc(C)c(C)n2c1 (relative stereo) | 143 to 144 °C
